From patent US6750228B1, “Aromatic sulfone hydroxamic acid metalloprotease inhibitor” (priority 1997, dated 2004)
Structures can show the parent of a compound that is named as a salt. Where two headings read alike, the source gives them in different places.

Tests used:
Assay in all cases: biochemical
[1] = molecular target: T1, MMP-1 (Homo sapiens, UniProt P03956); conditions: read-out: MMP-1 IC50
T1 construct: made in house; host or cells: transfected HT-1080 cells (provided by Dr. Harold Welgus, Washington University)
T1 sequence (P03956 100-469): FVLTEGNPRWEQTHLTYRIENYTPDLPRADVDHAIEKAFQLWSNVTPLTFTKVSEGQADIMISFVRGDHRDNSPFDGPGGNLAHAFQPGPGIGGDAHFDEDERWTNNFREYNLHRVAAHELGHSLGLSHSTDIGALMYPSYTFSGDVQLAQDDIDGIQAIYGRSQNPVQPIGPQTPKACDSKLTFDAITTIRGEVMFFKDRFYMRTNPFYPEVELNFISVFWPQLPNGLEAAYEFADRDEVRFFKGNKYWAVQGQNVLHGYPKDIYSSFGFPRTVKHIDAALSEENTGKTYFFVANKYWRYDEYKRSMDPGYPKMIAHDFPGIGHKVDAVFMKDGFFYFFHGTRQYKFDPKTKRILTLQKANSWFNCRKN
Method in brief: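 Substrate MCA-PLGL-Dpa-AR-NH2 at 4 μM final; pH 7.5 Tris/NaCl/CaCl2 buffer with 0.05% polyethyleneglycol lauryl ether, 1% DMSO, room temperature. MMP-1 was expressed in transfected HT-1080 cells and APMA-activated.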

[2] = molecular target: T2, MMP-2 (Homo sapiens, UniProt P08253); conditions: read-out: MMP-2 IC50
T2 construct: made in house; provided by Dr. Gregory Goldberg, Washington University
T2 sequence (P08253 110-660): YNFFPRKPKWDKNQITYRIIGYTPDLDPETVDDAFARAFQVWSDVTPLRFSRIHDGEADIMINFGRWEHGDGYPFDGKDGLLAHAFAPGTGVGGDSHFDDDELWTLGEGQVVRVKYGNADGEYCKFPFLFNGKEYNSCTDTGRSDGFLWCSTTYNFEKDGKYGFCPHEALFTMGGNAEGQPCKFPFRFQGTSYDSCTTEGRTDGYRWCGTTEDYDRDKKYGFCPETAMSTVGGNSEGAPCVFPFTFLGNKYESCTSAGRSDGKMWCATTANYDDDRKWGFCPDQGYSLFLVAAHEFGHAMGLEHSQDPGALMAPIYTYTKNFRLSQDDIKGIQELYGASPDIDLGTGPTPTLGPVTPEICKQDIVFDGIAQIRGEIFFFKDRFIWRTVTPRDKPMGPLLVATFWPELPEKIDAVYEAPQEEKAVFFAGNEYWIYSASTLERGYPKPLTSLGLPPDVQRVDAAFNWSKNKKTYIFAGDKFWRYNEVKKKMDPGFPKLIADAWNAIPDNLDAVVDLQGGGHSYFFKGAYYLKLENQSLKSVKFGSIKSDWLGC
Method in brief: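 APMA- or trypsin-activated human MMPs (MMP-1 from transfected HT-1080 cells, MMP-2 from transfected cells) preincubated with inhibitor in 1% DMSO at room temperature, then 4 μM MCA-Pro-Leu-Gly-Leu-Dpa-Ala-Arg-NH2 added in Tris/NaCl/CaCl2 buffer pH 7.5. IC50 from fluorescence reduction versus inhibitor concentration.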

[3] = molecular target: T3, MMP-13 (Homo sapiens, UniProt P45452)
T3 construct: made in house; host or cells: baculovirus / insect cells
Method in brief: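 APMA- or trypsin-activated enzymes were preincubated with inhibitor for 5 min at room temperature, then the fluorogenic substrate MCA-Pro-Leu-Gly-Leu-Dpa-Ala-Arg-NH2 was added to a final 4 μM.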

[4] = recombinant human MMP-1, MCA peptide substrate 4 μM, pH 7.5, room temperature
[5] = recombinant human MMP-2, MCA peptide substrate 4 μM, pH 7.5, room temperature
[6] = recombinant human MMP-13, MCA peptide substrate 4 μM, pH 7.5, room temperature, read-out: MMP-13 IC50

SMILES	IC50 [1, 4] [nM]	IC50 [2, 5] [nM]	IC50 [3, 6] [nM]	IC50 [1] [nM]	IC50 [2] [nM]	IC50 ([3]; read-out: MMP-13 IC50) [nM]	IC50 ([3]; MMP-13 IC50 (nM), recombinant human MMP-13, MCA peptide substrate 4 μM, pH 7.5, room temperature) [nM]
CC1CC(C)CN(C(=O)C2CCN(c3ccc(S(=O)(=O)C4(C(=O)NO)CCN(C(=O)Cn5cncn5)CC4)cc3)CC2)C1 (stereo not drawn) [Example 311]	> 10000	> 10000	120	–	–	–	–
O=C(c1ccc2c(c1)OCCO2)C1CCN(c2ccc(S(=O)(=O)C3(C(=O)NO)CCOCC3)cc2)CC1 [Example 797]	–	175	4	> 10000	–	–	–
CC(C)c1ccc(C(=O)C2CCN(c3ccc(S(=O)(=O)C4(C(=O)NO)CCOCC4)cc3)CC2)cc1 [Example 788]	> 10000	445	3	–	–	–	–
C[C@@H]1C[C@H](C)CN(C(=O)C2CCN(c3ccc(S(=O)(=O)C4(C(=O)NO)CCN(C(=O)OC(C)(C)C)CC4)cc3)CC2)C1 [Example 241, rel-1,1-Dimethylethyl 4-[[4-[4-[[(3R,5S)-3,5-Dimethyl-1-piperidinyl]carbonyl]-1-piperidinyl]-phenyl]sulfonyl]-4-[(hydroxyamino)carbonyl]-1-piperidinecarboxylate]	> 10000	> 10000	4.8	–	–	–	–
COCCN1CCC(C(=O)NO)(S(=O)(=O)c2ccc(N3CCC(C(=O)N4CC(C)CC(C)C4)CC3)cc2)CC1 (stereo not drawn) [Example 233, 4-[[4-[4-[(3,5-Dimethyl-1-piperidinyl)carbonyl]-1-piperidinyl]-phenyl]sulfonyl]-N-hydroxy-1-(2-methoxyethyl)-4-piperidinecarboxamide, Monohydrochloride]	–	–	–	> 10000	2050	43.5	–
O=C(NO)C1(S(=O)(=O)c2ccc(Oc3ccc(OC(F)(F)F)cc3)cc2)CCN(c2ccncc2)CC1 [Example 391]	5400	< 0.1	0.1	–	–	–	–
CC(C)N1CCC(C(=O)NO)(S(=O)(=O)c2ccc(OC(F)(F)F)cc2)CC1 [Example 439]	> 10000	1600	1070	–	–	–	–
CCC(CC)COCc1ccc(COC2CCN(c3ccc(S(=O)(=O)C4(C(=O)NO)CCOCC4)cc3)CC2)cc1 [Example 602]	> 10000	3000	70	–	–	–	–
O=C(NO)C1(S(=O)(=O)c2ccc(N3CCCCC3CCOCc3ccccc3)cc2)CCOCC1 (stereo not drawn) [Example 509]	> 10000	> 10000	520	–	–	–	–
O=C(NO)C1(S(=O)(=O)c2ccc(N3CCC(Oc4cc(F)cc(F)c4)CC3)cc2)CCOCC1 [Example 545]	> 10000	120	7.7	–	–	–	–
O=C(NO)C1(S(=O)(=O)c2ccc(OC3CN(S(=O)(=O)Cc4ccccc4)C3)cc2)CCOCC1 [Example 850]	> 10000	150	4.5	–	–	–	–
CC1CC(C)CN(C(=O)C2CCN(c3ccc(S(=O)(=O)C4(C(=O)NO)CCN(C(=O)CNCc5ccncc5)CC4)cc3)CC2)C1 (stereo not drawn) [Example 285]	> 10000	9000	19.3	–	–	–	–
CCN(CCCCC(=O)N1CCC(C(=O)NO)(S(=O)(=O)c2ccc(Oc3ccc(C(F)(F)F)cc3)cc2)CC1)Cc1ccncc1 [Example 344]	> 10000	0.65	2.9	–	–	–	–
O=C(NO)C1(S(=O)(=O)c2ccc([C@H]3CC[C@@H](c4ccccc4)CC3)cc2)CCOCC1 [Example 781]	> 10000	5100	800	–	–	–	–
CN1CCCN(c2ccc(S(=O)(=O)C3(C(=O)NO)CCOCC3)cc2)CC1 [Example 213]	> 10000	2700	1400	–	–	–	–
COc1cccc(NC(=O)N2CCC(C(=O)NO)(S(=O)(=O)c3ccc(Oc4ccc(OC(F)(F)F)cc4)cc3)CC2)c1 [Example 353]	> 10000	< 0.1	0.3	–	–	–	–
CC1CC(C)CN(C(=O)C2CCN(c3ccc(S(=O)(=O)C4(C(=O)NO)CCN(C(=O)CN(C)CCN(C)C)CC4)cc3)CC2)C1 (stereo not drawn) [Example 287]	> 10000	> 10000	150	–	–	–	–
O=C(C1CCN(c2ccc(S(=O)(=O)C3(C(=O)NO)CCOCC3)cc2)CC1)N1CCN(c2ccncc2)CC1 [Example 37]	–	–	–	> 10000	1750	–	30
C=CCCC(=O)C1CCN(c2ccc(S(=O)(=O)C3(C(=O)NO)CCOCC3)cc2)CC1 [Example 758]	> 10000	34.7	5	–	–	–	–

Further lines, with some results ahead:

IC50 [1, 4] [nM]	IC50 [2, 5] [nM]	IC50 [3, 6] [nM]	SMILES	IC50 [1] [nM]	IC50 [2] [nM]	IC50 ([3]; read-out: MMP-13 IC50) [nM]	IC50 ([3]; MMP-13 IC50 (nM), recombinant human MMP-13, MCA peptide substrate 4 μM, pH 7.5, room temperature) [nM]
> 10000	330	48.4	O=C(NO)C1(S(=O)(=O)c2ccc(OC3CCCC(OCc4ccccc4Cl)C3)cc2)CCOCC1 (stereo not drawn) [Example 666]	–	–	–	–
> 10000	41.8	1.1	N#Cc1ccc(COC2CCN(c3ccc(S(=O)(=O)C4(C(=O)NO)CCOCC4)cc3)CC2)cc1 [Example 180]	–	–	–	–
> 10000	700	290	COCC1CCCN(c2ccc(S(=O)(=O)C3(C(=O)NO)CCOCC3)cc2)C1 (stereo not drawn) [Example 525]	–	–	–	–
> 10000	700	5.5	O=C(NO)C1(S(=O)(=O)c2ccc(N3CCC(OCc4ccc(COCC(F)(F)C(F)(F)F)cc4)CC3)cc2)CCOCC1 [Example 565]	–	–	–	–
> 10000	5700	40	CC1CC(C)CN(C(=O)C2CCN(c3ccc(S(=O)(=O)C4(C(=O)NO)CCOCC4)cc3)CC2)C1 (stereo not drawn) [Example 54]	–	–	–	–
> 10000	350	11.4	CCCCOc1ccc(NC(=O)OC2CCN(c3ccc(S(=O)(=O)C4(C(=O)NO)CCOCC4)cc3)CC2)cc1 [Example 518]	–	–	–	–
4000	4.5	5.4	O=C(NO)C1(S(=O)(=O)c2ccc(N3CC=CCC3)cc2)CCOCC1 [Example 210]	–	–	–	–
> 10000	2900	1500	O=C(NO)C1(S(=O)(=O)c2ccc(OC3CN(C(c4ccccc4)c4ccccc4)C3)cc2)CCOCC1 [Example 794]	–	–	–	–
480	13.8	15.8	O=C(NO)C1(S(=O)(=O)c2ccc(Oc3cccnc3)cc2)CCSCC1 [Example 149]	–	–	–	–
> 10000	0.1	0.8	O=C(c1ccccc1)N1CCC(C(=O)NO)(S(=O)(=O)c2ccc(Oc3ccc(C(F)(F)F)cc3)cc2)CC1 [Example 92]	–	–	–	–
> 10000	1100	14	CC(C)NC(=O)OC1CCN(c2ccc(S(=O)(=O)C3(C(=O)NO)CCOCC3)cc2)CC1 [Example 517]	–	–	–	–
> 10000	290	11.3	COc1ccc(S(=O)(=O)N2CCN(c3ccc(S(=O)(=O)C4(C(=O)NO)CCOCC4)cc3)CC2)cc1OC [Example 683]	–	–	–	–
> 10000	500	11.5	O=C(Nc1ccc(F)cc1)C1CCN(c2ccc(S(=O)(=O)C3(C(=O)NO)CCOCC3)cc2)CC1 [Example 75]	–	–	–	–
> 10000	< 0.1	1.6	O=C(NO)C1(S(=O)(=O)c2ccc(Oc3ccc(OC(F)(F)F)cc3)cc2)CCN(S(=O)(=O)c2cccc(C(F)(F)F)c2)CC1 [Example 196]	–	–	–	–
> 10000	0.1	0.3	O=C(CN1CCCCC1)N1CCC(C(=O)NO)(S(=O)(=O)c2ccc(Oc3ccc(C(F)(F)F)cc3)cc2)CC1 [Example 318]	–	–	–	–
> 10000	94	2.4	COCc1ccc(COC2CCN(c3ccc(S(=O)(=O)C4(C(=O)NO)CCOCC4)cc3)CC2)cc1 [Example 522]	–	–	–	–
> 10000	50	5	COc1ccc(S(=O)(=O)N2CCN(c3ccc(S(=O)(=O)C4(C(=O)NO)CCOCC4)cc3)CC2)cc1 [Example 678]	–	–	–	–
> 10000	25.1	3.5	O=C(Nc1ccc(F)cc1)OC1CCN(c2ccc(S(=O)(=O)C3(C(=O)NO)CCOCC3)cc2)CC1 [Example 191]	–	–	–	–
